Source: patent US20260151378A1, “SALT AND CRYSTAL FORM OF HETEROCYCLIC DERIVATIVE INHIBITOR, AND PREPARATION METHOD THEREFOR AND USE THEREOF” (SHANGHAI HANSOH BIOMEDICAL CO., LTD., priority 2022, published 2026)

Key:
[1] = system: BRCA2 Knockout DLD-1 cells; assay: Inhibition of proliferation of BRCA2 Knockout DLD-1 cells (CellTiter-Glo); assay type: cell-based; conditions: Homo sapiens, about 144 hours
Method: When using RPMI1640 medium containing 10% FBS to culture BRCA2 Knockout DLD-1 cells to an appropriate cell density, the cells were collected and adjusted with complete medium to an appropriate cell concentration, the cell suspension was spread in a 96-well plate, with 90 μL per well, and the plate was placed in a 37° C., 5% CO2 incubator for overnight adherence. Compound solutions with different concentrations were prepared with DMSO and the culture medium, and a vehicle control was prepared. The compound solutions were added to the 96-well plate, with 10 μL per well, and the plate was placed in a 37° C., 5% CO2 incubator for continued culturing for about 144 hours. CellTiter-Glo solution was added and uniformly mixed by shaking. After incubation for 10-30 minutes in the dark, reading was carried out with Synergy H1 or Envision microplate reader.
The inhibition rate was calculated from the luminescence signal value, and the concentration and inhibition rate were subjected to non-linear regression curve fitting by using Graphpad Prism software to obtain an IC50 value. The inhibitory effects of the compounds of some examples of the present disclosure on the proliferation activity of BRCA2 Knockout DLD-1 cells were as shown in the following table: […]

[2] = Hygroscopicity determination; assay type: physicochemical; conditions: for hygroscopicity / weight gain after moisture absorption: RH 80%; for crystalline form transformation (XRPD pattern): after 1 cycle of moisture absorption and desorption, 0-95% relative humidity
Method: The crystalline forms of the salt of the compound were placed in saturated water vapor at different relative humidities to reach a dynamic equilibrium between the crystalline forms of the salt of the compound and the water vapor, and the weight gain percentage after moisture absorption after equilibrium was calculated.

[3] = Polymorphism study: slurrying of salt crystalline forms in solvents; assay type: physicochemical; conditions: 7 days
[4] = Solubility experiment in different vehicles; assay type: physicochemical; conditions: 37° C., 2 hours
[5] = Solid stability experiment; assay type: physicochemical
Method: About 1 mg of crystalline forms of different salts were taken and investigated at a high temperature of 60° C., a high humidity of RH=92.5%, and a high temperature and high humidity of 50° C. and 75% RH for 7 and 14 days. The changes of related substances were calculated for the crystalline forms of the salts by a chromatographic peak area normalization method.

[6] = PK study of crystalline forms of different salts in rats; assay type: in vivo; conditions: SD rats, gavage, 0.5% HPMC K4M
[7] = system: human colorectal cancer cell strain DLD-1 BRCA2−/−; assay: In vivo pharmacodynamics in DLD-1 BRCA2−/− subcutaneous graft tumor model; design: species or system BALB/c nude mice; conditions: DLD-1 BRCA2−/− nude mice, oral, once/day, 28 days
Method: • a. […] The cells were passaged every three days, and after passage, the cells were placed in a CO2 incubator to continue the culture. This process was repeated until the cell number meets the needs of in vivo efficacy. • c. The cultured cells were collected, counted using a full-automatic cell counter, resuspended with PBS according to the counting results, and prepared into a cell suspension (at a density of 5×10^7/mL), which was then placed in an ice box for use. • a. Nude mouse was marked with a disposable universal ear tag for mice and rats before inoculation. • b. At the time of inoculation, the cell suspension was mixed well, 0.1-1 mL of cell suspension was taken with a 1 mL syringe, and after removing air bubbles, the syringe was placed on an ice bag until use. • c. The nude mouse was secured with the left hand. […] The nude mice were inoculated successively (inoculation with 0.1 mL of cell suspension per mouse). • a. […] According to the weight of tumor-bearing mice and the size of the tumor, the mice were grouped by random grouping. • c. […] Tumors were measured and weighed twice a week after starting administration of test drugs. • e. […] The data was processed with software such as Excel.

[8] = FaSSGF (simulated gastric fluid, fasted)
[9] = FaSSIF (simulated intestinal fluid, fasted)
[10] = FeSSIF (simulated intestinal fluid, fed)

CCc1cc2ncc(CN3CC=C(c4ccc(C(=O)NC5(C#N)CC5)nc4)CC3)cc2[nH]c1=O [Example 16]
IC50 [1]: 2.7 nM

CNC(=O)c1ccc(C2=CCN(Cc3cnc4cc(C(F)(F)F)c(=O)[nH]c4c3)CC2)cn1 [Example 21]
IC50 [1]: 5.1 nM

CCc1cc2ncc(CN3CC=C(c4ccc(C(=O)NOC)nc4)CC3)cc2[nH]c1=O [Example 3]
IC50 [1]: 3.2 nM

1′-((7-ethyl-6-carbonyl-5,6-dihydro-1,5-diazanaphth-3-yl)methyl)-N-methyl-1′,2′,3′,6′-tetrahydro-[3,4′-bipyridinyl]-6-carboxamide [sulfate crystalline Form A]
hygroscopicity [2]: weak hygroscopicity | weight gain after moisture absorption [2]: 1.785% | crystalline form transformation (XRPD pattern) [2]: no crystalline form transformation occurred | Slurrying result ([3]; 1,4-Dioxane, 50° C.): Crystalline Form A | Slurrying result ([3]; 2-Me—THF, 50° C.): Crystalline Form A | Slurrying result ([3]; ACN, 50° C.): Crystalline Form A | Slurrying result ([3]; Acetone, 50° C.): Crystalline Form A | Slurrying result ([3]; EA, 50° C.): Crystalline Form A | Slurrying result ([3]; EtOH, 50° C.): Crystalline Form A | Slurrying result ([3]; MeOH, 50° C.): Crystalline Form A | Slurrying result ([3]; THF, 50° C.): Crystalline Form A | Slurrying result ([3]; Toluene, 50° C.): Crystalline Form A | solubility [4, 8]: >466 µg/mL | solubility [4, 9]: 133 µg/mL | solubility [4, 10]: >347 µg/mL | solubility ([4]; Water): 696 µg/mL | Stability result (total impurity increase %) ([5]; 50° C., 75% RH, 7 days): 0.12% | Stability result (total impurity increase %) ([5]; 50° C., 75% RH, 14 days): 0.56% | Stability result (total impurity increase %) ([5]; 60° C., 7 days): 0.76% | Stability result (total impurity increase %) ([5]; 60° C., 14 days): 0.66% | Stability result (total impurity increase %) ([5]; 92.5% RH, 7 days): 0.17% | Stability result (total impurity increase %) ([5]; 92.5% RH, 14 days): 0.06% | AUC0-t ([6]; 5 mpk, 5 mg/kg): 118.078 µg·h/mL | AUC0-∞ ([6]; 5 mpk, 5 mg/kg): 119.241 µg·h/mL | Cmax ([6]; 5 mpk, 5 mg/kg): 14467 ng/mL | F % ([6]; 5 mpk, 5 mg/kg): 75% | MRT0-∞ ([6]; 5 mpk, 5 mg/kg): 5.3 h | t1/2 ([6]; 5 mpk, 5 mg/kg): 3.7 h | tmax ([6]; 5 mpk, 5 mg/kg): 2.0 h

CCc1cc2ncc(CN3CCC(c4ccc(C(=O)NC)nc4)=C(F)C3)cc2[nH]c1=O [Example 19]
IC50 [1]: 1.5 nM

CCc1cc2ncc(CN3CC=C(c4ccc(C(=O)NC)nc4Cl)CC3)cc2[nH]c1=O [Example 13]
IC50 [1]: 1 nM

1′-((7-ethyl-6-carbonyl-5,6-dihydro-1,5-diazanaphth-3-yl)methyl)-N-methyl-1′,2′,3′,6′-tetrahydro-[3,4′-bipyridinyl]-6-carboxamide [p-toluenesulfonate dihydrate crystalline Form A]
hygroscopicity [2]: weak hygroscopicity | weight gain after moisture absorption [2]: 1.906% | crystalline form transformation (XRPD pattern) [2]: no crystalline form transformation occurred | Slurrying result ([3]; 1,4-Dioxane, 40° C.): Still as hydrate crystalline | Slurrying result ([3]; 2-Butanone, 40° C.): Still as hydrate crystalline | Slurrying result ([3]; 2-Methyltetrahydrofuran, 40° C.): Still as hydrate crystalline | Slurrying result ([3]; Acetone, 40° C.): p-Toluenesulfonate crystalline | Slurrying result ([3]; Acetonitrile, 40° C.): p-Toluenesulfonate crystalline | Slurrying result ([3]; Dichloromethane, 40° C.): p-Toluenesulfonate crystalline | Slurrying result ([3]; Ethanol, 40° C.): p-Toluenesulfonate crystalline | Slurrying result ([3]; Ethyl acetate, 40° C.): Still as hydrate crystalline | Slurrying result ([3]; Ethyl formate, 40° C.): p-Toluenesulfonate crystalline | Slurrying result ([3]; Isopropanol, 40° C.): Still as hydrate crystalline | Slurrying result ([3]; Methyl tert-butyl ether, 40° C.): Still as hydrate crystalline | Slurrying result ([3]; Tetrahydrofuran, 40° C.): Still as hydrate crystalline | Slurrying result ([3]; Toluene, 40° C.): Still as hydrate crystalline | Slurrying result ([3]; Trichloromethane, 40° C.): p-Toluenesulfonate crystalline | Slurrying result ([3]; methanol, 40° C.): p-Toluenesulfonate crystalline | solubility [4, 8]: >437 µg/mL | solubility [4, 9]: 147 µg/mL | solubility [4, 10]: >340 µg/mL | solubility ([4]; Water): 308 µg/mL | Stability result (total impurity increase %) ([5]; 50° C., 75% RH, 7 days): <0.03% | Stability result (total impurity increase %) ([5]; 50° C., 75% RH, 14 days): <0.03% | Stability result (total impurity increase %) ([5]; 60° C., 7 days): <0.03% | Stability result (total impurity increase %) ([5]; 60° C., 14 days): <0.03% | Stability result (total impurity increase %) ([5]; 92.5% RH, 7 days): 0.08% | Stability result (total impurity increase %) ([5]; 92.5% RH, 14 days): <0.03% | AUC0-t ([6]; 5 mpk): 145.036 µg·h/mL | AUC0-∞ ([6]; 5 mpk): 146.622 µg·h/mL | Cmax ([6]; 5 mpk): 17433 ng/mL | t1/2 ([6]; 5 mpk): 3.8 h | F % ([6]; 5 mpk, 5 mg/kg): 92% | MRT0-∞ ([6]; 5 mpk, 5 mg/kg): 5.4 h | tmax ([6]; 5 mpk, 5 mg/kg): 1.0 h | AUC0-t ([6]; 20 mpk): 558.44 µg·h/mL | AUC0-∞ ([6]; 20 mpk): 587.652 µg·h/mL | Cmax ([6]; 20 mpk): 53400 ng/mL | F % ([6]; 20 mpk): 93% | MRT0-∞ ([6]; 20 mpk): 7.5 h | t1/2 ([6]; 20 mpk): 5.7 h | tmax ([6]; 20 mpk): 4.0 h

CCc1cc2ncc(CN3CC=C(c4ccc(C(=O)NCC#N)nc4)CC3)cc2[nH]c1=O [Example 15]
IC50 [1]: 2.4 nM

CCc1cc2ncc(CN3CC=C(c4ccc(C(=O)NCC(F)(F)F)nc4)CC3)cc2[nH]c1=O [Example 20]
IC50 [1]: 1.4 nM

CCc1cc2ncc(CN3CC=C(c4ccc(C(=O)NC5CC5)nc4)CC3)cc2[nH]c1=O [Example 2]
animal weight [7]: without significant reduction of the animal weight
